Measurements from US5583227A, “Antiulcer compounds having a substituted alkynyl or quinoxaline nucleus and methods of making thereof” (Mochida Pharmaceutical Co. Ltd., priority 1994, dated 1996).

What was measured:
[1] = target: T1, H^+,K^+ adenosine triphosphatase (Sus scrofa, UniProt P19156); assay: H+,K+ adenosine triphosphatase inhibition (proton pump inhibition); type: biochemical, hog; conditions: H+,K+ ATPase fraction from hog stomach microsomes, ATP substrate, released inorganic phosphorus; read-out: Enzyme inhibition IC50 value (converted)
T1 construct: hog stomach was homogenized and subjected to ultracentrifugation to obtain a microsome fraction; from tissue; host or cells: hog stomach, microsome fraction (discontinuous Ficoll gradient)
T1 sequence (P19156 2-1034 limits assumed): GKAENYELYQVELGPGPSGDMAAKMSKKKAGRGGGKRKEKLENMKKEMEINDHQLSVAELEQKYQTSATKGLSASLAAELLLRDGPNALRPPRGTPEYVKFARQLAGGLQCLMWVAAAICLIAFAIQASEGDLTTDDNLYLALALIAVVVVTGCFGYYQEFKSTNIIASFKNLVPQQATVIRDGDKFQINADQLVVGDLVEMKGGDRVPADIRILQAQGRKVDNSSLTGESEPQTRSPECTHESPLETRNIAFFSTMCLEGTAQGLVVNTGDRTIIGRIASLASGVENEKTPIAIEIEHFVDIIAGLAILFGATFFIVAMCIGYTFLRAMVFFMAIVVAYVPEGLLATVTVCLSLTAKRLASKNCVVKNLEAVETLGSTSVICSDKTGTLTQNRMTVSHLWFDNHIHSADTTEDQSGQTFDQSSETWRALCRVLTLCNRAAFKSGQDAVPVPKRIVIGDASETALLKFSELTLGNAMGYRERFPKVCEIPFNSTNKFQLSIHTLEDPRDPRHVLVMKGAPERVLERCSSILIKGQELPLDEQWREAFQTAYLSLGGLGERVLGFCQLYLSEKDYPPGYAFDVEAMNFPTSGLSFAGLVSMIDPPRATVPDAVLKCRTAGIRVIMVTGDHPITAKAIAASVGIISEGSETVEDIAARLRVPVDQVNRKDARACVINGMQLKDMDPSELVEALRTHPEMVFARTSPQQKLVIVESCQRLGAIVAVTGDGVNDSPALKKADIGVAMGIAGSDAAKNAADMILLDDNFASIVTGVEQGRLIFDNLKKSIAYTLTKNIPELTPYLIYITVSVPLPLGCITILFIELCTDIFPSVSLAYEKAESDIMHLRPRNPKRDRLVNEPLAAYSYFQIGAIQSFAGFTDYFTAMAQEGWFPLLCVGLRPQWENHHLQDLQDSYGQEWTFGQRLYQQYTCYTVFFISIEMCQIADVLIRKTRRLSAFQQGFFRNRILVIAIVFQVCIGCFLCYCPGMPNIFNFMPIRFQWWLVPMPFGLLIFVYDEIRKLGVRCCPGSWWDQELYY
T1 sequence (P18434 whole entry partner): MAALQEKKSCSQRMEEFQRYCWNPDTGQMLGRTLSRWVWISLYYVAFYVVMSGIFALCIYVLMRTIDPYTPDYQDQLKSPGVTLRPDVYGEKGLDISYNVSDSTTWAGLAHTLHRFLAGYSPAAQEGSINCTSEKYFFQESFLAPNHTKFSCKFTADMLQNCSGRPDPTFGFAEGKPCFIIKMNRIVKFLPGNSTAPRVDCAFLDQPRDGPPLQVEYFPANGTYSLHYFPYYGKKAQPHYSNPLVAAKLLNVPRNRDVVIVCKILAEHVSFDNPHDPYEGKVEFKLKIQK
Description: Proton pump inhibition was evaluated by the H^+,K^+ adenosine triphosphatase (to be referred to as "H^+,K^+ ATPase" hereinafter)inhibition.
That is, hog stomach was homogenized and subjected to ultracentrifugation to obtain a microsome fraction, and the microsomes were subjected to discontinuous density gradient ultracentrifugation using 0 and 9% Ficoll solutions to obtain a fraction containing H^+,K^+ ATPase. The H^+,K^+ ATPase activity was determined by measuring the released inorganic phosphorus using ATP as the substrate and an inorganic phosphorus measuring reagent PiSET(IATRON) manufactured by IATRON.

[2] = system: ulcer induced by 0.15N hydrochloric acid and 60% ethanol; assay: Cell protection effect (hydrochloric acid/ethanol-induced ulcer); type: in vivo, Wistar male rats; conditions: Rattus norvegicus, 1 h; oral, 30 minutes before 0.15N HCl / 60% ethanol 5 ml/kg
Description: (Test Example 5) Cell protection effect
Basically according to the method of Mizui and Doteuchi (Japan. J. Pharmacol., vol.33, pp.939-945, 1983), each of the compounds shown in Examples was orally administered to Wistar male rats which have been subjected to fasting of 24 hours (free drinking). After 30 minutes of the compound administration, a mixture solution of 0.15N hydrochloric acid and 60% ethanol was orally administered at a dose of 5 ml/kg. After 1 hour of standing, the stomach was excised. The length (mm) of each ulcer developed in the stomach was measured under a stereoscopic microscope to calculate the total length of ulcers per animal as an ulcer index. The dose of each test compound required to inhibit 50% of the ulcer index of the control group was calculated (ED50).

gastric acid secretion = assay: Gastric acid secretion inhibition activity (pylorus-ligated, histamine-stimulated rats); type: in vivo, Sprague-Dawley (SD) male rats; conditions: Rattus norvegicus; 30 mg/kg oral; pylorus ligated 3 hours later; histamine hydrochloride 30 mg/kg s.c.; total acidity over 3 hours; read-out: Acid secretion inhibition rate (%)
Description: (Test Example 2) Gastric acid secretion inhibition activity
Basically according to the method of Satoh et (Journal of Pharmacology and Experimental Therapeutics, vol.248, pp.806-815, 1988), each of the compounds shown in Examples was orally administered at a dose of 30 mg/kg to Sprague-Dawley (SD) male rats which have been subjected to fasting of 24 hours (free drinking).
After 3 hours of the compound administration, the pylorus of each rat was ligated under urethane anesthesia, and 30 mg of histamine hydrochloride per Kg was administered to the rat by subcutaneous injection. After 3 hours of the ligation, the gastric juice was collected to measure its volume and calculate total acidity (mEqH^+ /3 hours) by sodium hydroxide titration. The inhibition rate (%) was calculated by the following formula in which A represents the total gastric juice acidity of control group rat and B represents the total gastric juice acidity of test compound-administered group rat. [formula]

Acute toxicity test = conditions: mouse, in vivo; oral, mice, one week observation
Description: (Test Example 6) Acute toxicity test
Each of the compounds shown in Examples was orally administered to three ICR male mice per group.

Stress ulcer = assay: Stress ulcer; type: in vivo, Wistar male rats; conditions: Rattus norvegicus; oral, 7 hours stress loading in water bath at 23° C.; read-out: Antiulcer activity, Stress ulcer, ED50 value
Description: (Test Example 3) Stress ulcer
Basically according to the method of Takagi et al. (Japanese Journal of Pharmacology (to be referred to as "Japan. J. Pharmacol." hereinafter), vol.18, pp.9-18, each of the compounds shown in Examples was orally administered to Wistar male rats which have been subjected to fasting of 24 hours (free drinking). Each rat was transferred into a stress cage 30 minutes thereafter and subjected to stress loading by suspending the cage in a water bath controlled at 23° C. to such a depth that the rat was soaked up to its breast.
After 7 hours of the stress loading, the rat was recovered from the water bath to excise the stomach. The length (mm) of each ulcer developed in the stomach was measured under a stereoscopic microscope, and the total length of ulcers per one animal was used as an ulcer index. The dose of each test compound required to inhibit 50% of the ulcer index of the control group was calculated (ED50). The results are shown in Table 3, together with the results of the following pylorus ligation ulcer test.

Pylorus ligation ulcer = assay: Pylorus ligation ulcer; type: in vivo, Wistar male rats; conditions: Rattus norvegicus; oral, 14 hours after pylorus ligation; read-out: Antiulcer activity, Pylorus ligation ulcer, ED50 value
Description: (Test Example 4) Pylorus ligation ulcer
Basically according to the method of Shay et al. (Gastroenterology, vol.5, pp.43-61, 1945), each of the compounds shown in Examples was orally administered to Wistar male rats which have been subjected to fasting of 48 hours (free drinking). After 30 minutes of the compound administration,the pylorus of each rat was ligated.
After 14 hours of standing, the stomach was excised. The length and width of each ulcer developed in the fore-stomach part were measured under a stereoscopic microscope to calculate the ulcer area (length×width). In accordance with the method of Takagi et al. (Japan. J. Pharmacol., vol.24, pp.357-361, 1974), ulcer index was calculated based on the total ulcer area per animal. The dose of each test compound required to inhibit 50% of the ulcer index of the control group was calculated (ED50).

SMILES | IC50 [1] [µM] | ED50 [2] [mg/kg] | inhibition in vivo at 30 mg/kg (gastric acid secretion) [%] | LD50 at 168 h (Acute toxicity test) [mg/kg] | ED50 (Stress ulcer) [mg/kg] | ED50 (Pylorus ligation ulcer) [mg/kg]
CCC(C#Cc1nc2ccc(C=O)cc2nc1C#CC(CC)OCCOC)OCCOC (stereo not shown) [Example 138] | 10.7 | 9.8 | – | – | – | –
COC(C)(C)C#Cc1nc2ccccc2nc1C#CC(C)(C)OC [Example 114] | 93 | 22 | 30 | > 1000 | – | –
CCOCCOC(C#Cc1nc2ccccc2nc1C#CC(CC)OCCOCC)CC (stereo not shown) [Example 117] | 123 | 8 | 35 | > 1000 | 6.1 | 28
CCOC(C)C#Cc1nc2ccccc2nc1C#CC(C)OCC (stereo not shown) [Example 10, 2,3-bis(3-ethoxy-1-butynyl)quinoxaline] | 96.2 | 1.9 | 38 | – | 15 | 11
CCOCCOC(C)(C)C#Cc1nc2ccccc2nc1C#CC(C)(C)OCCOCC [Example 44, 2,3-bis(3-(2-ethoxyethoxy)-3-methyl-1-butynyl)quinoxaline] | 88.9 | 13 | – | > 1000 | 59 | –
CCC(C#Cc1nc2ccccc2nc1C#CC(CC)OCCOC(C)C)OCCOC(C)C (stereo not shown) [Example 119] | 11.1 | 22 | – | – | – | –
COCCOC(C)(C)C#Cc1nc2ccccc2nc1C#CC(C)(C)OCCOC [Example 43, 2,3-bis(3-(2-methoxyethoxy)-3-methyl-1-butynyl)quinoxaline] | – | 13 | – | > 1000 | – | –
CCC(C#Cc1nc2ccccc2nc1C#CC(CC)OC)OC (stereo not shown) [Example 11, 2,3-bis(3-methoxy-1-pentynyl)quinoxaline] | 30.4 | 41 | 27 | > 1000 | – | 35
CCC(C#Cc1nc2ccccc2nc1C#CC(CC)OCCOC)OCCOC (stereo not shown) [Example 116] | 188 | 2.7 | 32 | > 1000 | 39 | –
COCC#Cc1nc(C#N)c(C#N)nc1C#CCOC [Example 7, 5,6-bis(3-methoxy-1-propynyl)-2,3-dicyanopyrazine] | 1.88 | 1.2 | – | > 1000 | 5.6 | 1.2
